Laboratory results published in US9809602B2, “Compounds for treating viral infections” (INSTITUT PASTEUR KOREA, priority 2014, dated 2017).
pEC50: −log10 of the molar value.

system: genotype 1/2 chimeric cell culture derived HCV (HCVcc); test: Genotype 1/2 chimeric HCVcc assay (nano-luciferase, HCV replication); type: cell-based; conditions: Hepatitis C virus
Procedure: Naïve Huh-7.5 target cells were plated at 2400 cells/well in 25 μL of culture media in 384-well plates (Greiner bio-one, μ clear black). After overnight incubation, compounds serially diluted in 10 μL of cell culture media were added. After 2 h compound treatment, cells were inoculated with 40 μL of genotype 1/2 chimeric cell culture derived HCV (HCVcc) which express structural proteins of an HCV genotype 1a isolate (TN accession number EF621489) and non-structural proteins of HCV genotype 2a (JFH-1) with nano-luciferase reporter. At 72 h post infection, nano-luciferase activity (Nano-Glo™, Promega) and cellular ATP (Cell titer-Glo™, Promega) were measured as a marker for HCV replication and cytotoxicity, respectively. EC50 and CC50 were calculated by non-linear regression analyzing using GraphPad Prism (GraphPad Software).

SMILES	pEC50
O=C(NCCCN1CCN(C(=O)C2CCCCC2)CC1)c1ccc(Oc2ccccc2)cc1 [Compound 1038]	< 5.00
O=C(NCCCN1CCC(N2CCCCC2)CC1)c1ccc(Oc2ccc(F)cc2)cc1 [Compound 1033]	5.00 to 6.00
O=C(NCCN1CCC(N2CCCCC2)CC1)c1ccc(Oc2ccccc2)cc1 [Compound 1044]	5.00 to 6.00
O=C(NCCCN1CCC(N2CCCCC2)CC1)c1ccc(-c2cccc([N+](=O)[O-])c2)cc1 [Compound 1147]	6.00 to 7.00
Cc1cc(-c2ccc(C(F)(F)F)cc2)ccc1C(=O)NCCCN1CCC(N2CCCCC2)CC1 [Compound 1156]	6.00 to 7.00
O=C(NCCCN1CCC(N2CCCCC2)CC1)c1ccc(-c2ccc(C(F)(F)F)cc2)s1 [Compound 1081]	6.00 to 7.00
O=C(NCCCN1CCCC1)c1ccc(C2CCCCC2)cc1 [Compound 1006]	5.00 to 6.00
O=C(NCCCN1CCC(N2CCCCC2)CC1)c1cc2ccccc2s1 [Compound 1009]	5.00 to 6.00
O=C(NCCCN1CCC(c2ccncc2)CC1)c1ccc(Oc2ccccc2)cc1 [Compound 1055]	< 5.00
Cc1cccc(-c2ccc(C(=O)NCCCN3CCC(N4CCCCC4)CC3)cc2)c1 [Compound 1014]	5.00 to 6.00
Cc1cc(NCCCN2CCC(N3CCCCC3)CC2)n2nc(-c3ccccc3)cc2n1 [Compound 1103]	5.00 to 6.00
O=C(NCCCOc1ccc(N2CCCCC2)cc1)c1ccc(Oc2ccccc2)cc1 [Compound 1051]	< 5.00
COc1ccc(-c2ccc(C(=O)NCCCN3CCC(N4CCCCC4)CC3)cc2)c(F)c1 [Compound 1131]	6.00 to 7.00
O=C(NCCCN1CCC(N2CCCCC2)CC1)c1cc(-c2ccc(C(F)(F)F)cc2)cs1 [Compound 1082]	6.00 to 7.00
O=S(=O)(NCCCCN1CCC(N2CCCCC2)CC1)c1ccc(-c2ccccc2)cc1 [Compound 1091]	6.00 to 7.00
O=C(NCCCN1CCC(N2CCCCC2)CC1)c1ccc(-c2ccc(C(F)(F)F)cn2)cc1 [Compound 1100]	6.00 to 7.00
O=C(Nc1cccc(CN2CCC(N3CCCCC3)CC2)c1)c1ccc(Oc2ccccc2)cc1 [Compound 1075]	6.00 to 7.00
O=C(NCCCN1CCC(N2CCCCC2)CC1)c1cccc(Oc2ccccc2)c1 [Compound 1031]	5.00 to 6.00
CC(C)C1CCN(C2CCN(CCCNC(=O)c3ccc(Oc4ccccc4)cc3)CC2)CC1 [Compound 1069]	6.00 to 7.00
O=S(=O)(NCCCN1CCC(N2CCCCC2)CC1)c1ccc(-c2ccc(OC(F)(F)F)cc2)cc1 [Compound 1092]	6.00 to 7.00
O=C(NCCCN1CCC(N2CCCCC2)CC1)c1ccc(-c2ccc(C(F)(F)F)cc2)o1 [Compound 1083]	6.00 to 7.00
O=C(NCCCN1CCC(N2CCCCC2)CC1)c1ccc(Oc2ccccc2F)cc1 [Compound 1061]	5.00 to 6.00
O=C(NCCCN1CCC(C2CCCCC2)CC1)c1ccc(Oc2ccccc2)cc1 [Compound 1071]	5.00 to 6.00
O=C(NCCCN1CCN(Cc2ccccc2)CC1)c1ccc(Oc2ccccc2)cc1 [Compound 1036]	5.00 to 6.00

same assay, conditions: Hepatitis C virus, Huh7.5, 72 h

SMILES	pEC50
CCOC(=O)c1c(NC(=O)NCc2c(-n3cccc3)sc3c2CCN(C)C3)sc2c1C(C)CCC2 (stereo not drawn) [Compound 152]	> 7.00
O=C(NCc1c(-n2cccc2)sc2c1CCNC2)Nc1sc2c(c1C(=O)OC1CCCC1)CCCC2 [Compound 220]	> 7.00
CCN1CCc2c(sc(-n3cccc3)c2CNC(=O)Nc2ccccc2)C1 [Compound 8]	< 5.00
CCOC(=O)c1c(NC(=O)c2c(-n3cccc3)sc3c2CCN(CC)C3)sc2c1CCCC2 [Compound 23]	5.00 to 6.00
CCN1CCc2c(sc(-n3cccc3)c2CNC(=O)Nc2sc3c(c2C(=O)NCCCCNC(=O)CCCCCN)CCCC3)C1 [Compound 88]	5.00 to 6.00
CC(C)N1CCc2c(sc(-n3cccc3)c2CNC(=O)Nc2sc3c(c2C(=O)OC(C)(C)C)CCCC3)C1 [Compound 98]	> 7.00
CCN1CCc2c(sc(-n3cccc3)c2CNC(=O)Nc2sc3c(c2C(=O)NCCCCNC(=O)OC(C)(C)C)CCCC3)C1 [Compound 90]	5.00 to 6.00
O=C(NCc1c(C(F)(F)F)sc2c1CCNC2)Nc1sc2c(c1C(=O)OC1CCOCC1)CCCC2 [Compound 330]	> 7.00
CC1CCc2sc(NC(=O)NCc3c(-n4cccc4)sc4c3CCN(C)C4)c(C(=O)OC(C)(C)C)c2C1 (stereo not drawn) [Compound 231]	> 7.00
Cc1nnc(-c2c(NC(=O)NCc3c(C(F)(F)F)sc4c3CCNC4)sc(C)c2C)o1 [Compound 149]	> 7.00
O=C(NCc1c(Br)sc2c1CCNC2)Nc1sc2c(c1C(=O)OC1CCCC1)CCCC2 [Compound 262]	> 7.00
CC(C)(C)OC(=O)c1c(NC(=O)NCc2c(-c3ccccc3F)sc3c2CCNC3)sc2c1CCCC2 [Compound 227]	6.00 to 7.00
CN(C)CCN1CCc2c(sc(-c3cccc(Cl)c3)c2CNC(=O)Nc2sc3c(c2C(=O)OC(C)(C)C)CCCC3)C1 [Compound 358]	> 7.00
CC(C)(C)OC(=O)c1c(NC(=O)NCc2c(-c3cc(F)cc(C(F)(F)F)c3)sc3c2CCNC3)sc2c1CCCC2 [Compound 246]	5.00 to 6.00
CCN1CCc2c(sc(-n3cccc3)c2CNC(=O)Nc2cccc(Cl)c2)C1 [Compound 9]	< 5.00
CC(C)(C)OC(=O)c1c(NC(=O)NCc2c(C(F)(F)F)sc3c2CCN(CCO)C3)sc2c1CCCC2 [Compound 373]	> 7.00
CCN1CCc2c(sc(C(F)(F)F)c2CNC(=O)Nc2sc(C)c(C)c2C(=O)OC(C)C)C1 [Compound 296]	> 7.00
CC(C)OC(=O)c1c(NC(=O)NCc2c(-n3cccc3)sc3c2CCNC3)sc2c1CCCC2 [Compound 141]	> 7.00
CC(C)(C)OC(=O)c1c(NC(=O)NCc2c(-c3ccccc3O)sc3c2CCNC3)sc2c1CCCC2 [Compound 249]	6.00 to 7.00
CCOC(=O)c1c(NC(=O)NCc2c(Br)sc3c2CCNC3)sc2c1CCC(F)(F)C2 [Compound 218]	> 7.00
O=C(NCc1c(-c2ccco2)sc2c1CCNC2)Nc1sc2c(c1C(=O)OC1CCOC1)CCCC2 (stereo not drawn) [Compound 342]	> 7.00
CCOC(=O)c1c(NC(=O)NCc2c(-n3cccc3)sc3c2CCN(CC)C3)sc(C(=O)N(C)C)c1C [Compound 58]	5.00 to 6.00
CC(C)(C)OC(=O)c1c(NC(=O)NCc2c(-c3ccc(C(F)(F)F)nc3)sc3c2CCNC3)sc2c1CCCC2 [Compound 131]	6.00 to 7.00
CC(C)(C)OC(=O)c1c(NC(=O)NCc2c(-c3cccc(O)c3)sc3c2CCNC3)sc2c1CCCC2 [Compound 252]	6.00 to 7.00

SMILES	pEC50
CCN1CCc2c(sc(-n3cccc3)c2CNC(=O)Nc2sc3c(c2C(=O)NCC(C)C)CCCC3)C1 [Compound 80]	> 7.00
CCOC(=O)c1c(NC(=O)NCc2c(-n3cccc3)sc3c2CCN(CC)C3)sc2c1CCCCC2 [Compound 56]	> 7.00
CCOC(=O)c1c(NC(=O)NCc2c(C(F)(F)F)sc(CN(C)C)c2C)sc2c1CCCC2 [Compound 214]	> 7.00
CCOC(=O)c1c(NC(=O)NCc2c(-n3cccc3)sc3c2CCN(Cc2ccccc2)C3)sc(C)c1C [Compound 28]	> 7.00
CNCc1sc(-n2cccc2)c(CNC(=O)Nc2sc3c(c2C(=O)OC(C)(C)C)CCCC3)c1C [Compound 158]	6.00 to 7.00
CCc1sc2c(c1CNC(=O)Nc1sc(C)c(C)c1C(=O)OC(C)(C)C)CCNC2 [Compound 288]	> 7.00
CCOC(=O)c1c(NC(=O)NCc2c(-n3cccc3)sc3c2CCN(S(C)(=O)=O)C3)sc2c1CCCC2 [Compound 21]	> 7.00
CCOC(=O)c1c(NC(=O)NCc2c(-n3cccc3)sc3c2CCN(CC)C3)sc2c1CCC(C)C2 (stereo not drawn) [Compound 153]	> 7.00
CCOC(=O)c1c(NC(=O)NCc2c(-n3cccc3)sc3c2CCN(C)C3)sc(C)c1C [Compound 71]	> 7.00
C=CCN1CCc2c(sc(-n3cccc3)c2CNC(=O)Nc2sc3c(c2C(=O)OC(C)(C)C)CCCC3)C1 [Compound 324]	> 7.00
COc1sc(NC(=O)NCc2c(C(F)(F)F)sc3c2CCNC3)c(C(=O)OC(C)(C)C)c1C [Compound 371]	> 7.00
CCOC(=O)c1c(NC(=O)NCc2c(-n3cccc3)sc3c2CCCN3C(=O)OC(C)(C)C)sc2c1CCCC2 [Compound 100]	< 5.00
CCOC(=O)c1c(N(C)C(=O)NCc2c(-n3cccc3)sc3c2CCN(CC)C3)sc2c1CCCC2 [Compound 55]	5.00 to 6.00
CCN1CCc2c(sc(-n3cccc3)c2CNC(=O)Nc2sc3c(c2C(=O)OC(C)(C)C)C(C)CCC3)C1 (stereo not drawn) [Compound 292]	> 7.00
CC1CCc2c(sc(NC(=O)NCc3c(Br)sc4c3CCNC4)c2C(=O)OC(C)(C)C)C1 (stereo not drawn) [Compound 213]	> 7.00
CCOC(=O)c1c(NC(=O)NCc2c(-n3cccc3)sc3c2CCN(CC)C3)sc(C(C)=O)c1C [Compound 39]	> 7.00
O=C(NCc1c(-n2cccc2)sc2c1CCNC2)Nc1sc2c(c1C(=O)NCc1ccccc1)CCCC2 [Compound 82]	6.00 to 7.00
COC(=O)c1c(NC(=O)NCc2c(Br)sc3c2CCNC3)sc2c1CCCC2 [Compound 128]	> 7.00
CCN1CCc2c(sc(-n3cccc3)c2CNC(=O)Nc2sc3c(c2-c2c[nH]cn2)CCCC3)C1 [Compound 95]	< 5.00
CCOC(=O)c1c(NC(=O)NCc2c(Br)sc3c2CCN(C(C)C)C3)sc2c1CCCC2 [Compound 200]	> 7.00
CCOC(=O)c1c(NC(=O)NCc2c(-n3cccc3)sc3c2CCCNC3)sc2c1CCCC2 [Compound 243]	> 7.00
CCN1CCc2c(sc(-n3cccc3)c2CNC(=O)Nc2sc3c(c2C(=O)NCCOCCOCCN)CCCC3)C1 [Compound 89]	5.00 to 6.00
CCOC(=O)c1c(NC(=O)NCc2c(-n3cccc3)sc3c2CCNC3)sc2c1CCNC2 [Compound 64]	5.00 to 6.00
CCc1sc2c(c1CNC(=O)Nc1sc3c(c1C(=O)OC(C)(C)C)CCOC3)CCNC2 [Compound 333]	> 7.00
